Columns and labels:
Format in all cases: in vivo
fat hen (Chenopodium) = assay: Selective herbicide effect test to field crop (soil spray treatment before germination), Test example 3, herbicide effect; settings: 2 weeks after treatment, 100% = complete death
Description: (§1) • Preparing preparation of active compound • Carrier: DMF 5 parts by weight • Emulsifier: benzyloxy polyglycol ether 1 part by weight
(§2) A preparation of active compound is obtained as an emulsion by mixing 1 part by weight of active compound with the above amounts of carrier and emulsifier. A prescribed amount of preparation is diluted with water.
(§3) In a greenhouse, seeds of field crops [wheat (Triticum), corn (Zea), soy bean (Glycine)] and weeds [barnyardgrass (Echinochloa), southern crabgrass (Digitaria), livid amaranth (Amaranthus), fat hen (Chenopodium)] were sown on the surface layer of 16 cm^2 pots filled with field soil (sandy loam), and covered with soil. After 1 day, the prescribed diluted solutions of preparations of respective active compounds, which were prepared according to Test example 1, were sprayed to the soil. After 2 weeks from the treatment, phytotoxicity to crops and herbicide effect of respective compounds were examined. In the evaluation of herbicide effect and phytotoxicity, complete death was evaluated as 100%, and the case of no herbicide effect or no phytotoxicity was evaluated as 0%. When the herbicide effect is 80% or more, such active compounds are evaluated to have practical utility as a herbicide. When phytotoxicity is 20% or less, such active compounds are evaluated to have excellent safety as a herbicide.

[1] = system: barnyardgrass (Echinochloa); assay: as above; settings: 2 weeks after treatment, 100% = complete death
Description: as §1, §2, §3

[2] = system: livid amaranth (Amaranthus); assay: as above; settings: 2 weeks after treatment, 100% = complete death
Description: as §1, §2, §3

[3] = system: southern crabgrass (Digitaria); assay: as above; settings: 2 weeks after treatment, 100% = complete death
Description: as §1, §2, §3

[4] = system: livid amaranth (Amaranthus); assay: Herbicide effect test against field weed (soil spray treatment before germination), Test example 1; settings: dosage 500 g ai/ha, 2 weeks after treatment, 100% = complete death, 0% = no effect
Description: as §1, §2
(§4) In a greenhouse, seeds of field weeds [livid amaranth (Amaranthus), green bristle grass (Setaria)] were sown on the surface layer of 16 cm^2 pots filled with field soil (sandy loam) , and covered with soil. Here, one kind of grass was sown for one pot. Immediately after sowing, the prescribed diluted solutions which were prepared according to the above preparation method of the preparation of respective active compounds were sprayed to soil. After 2 weeks from the treatment, the herbicide effect of each of the compounds was examined. In the evaluation of herbicide effect, complete death was evaluated as 100%, and the case of no herbicide effect was evaluated as 0%. When the herbicide effect is 80% or more, such active compounds are evaluated to have practical utility as a herbicide.

[5] = system: green bristle grass (Setaria); assay: as above; settings: dosage 500 g ai/ha, 2 weeks after treatment, 100% = complete death, 0% = no effect
Description: as §1, §2, §4

wheat (Triticum) = assay: Selective herbicide effect test to field crop (soil spray treatment before germination), Test example 3, phytotoxicity; settings: 2 weeks after treatment, 100% = complete death, 0% = no phytotoxicity
Description: as §1, §2, §3

soy bean (Glycine) = assay: as above; settings: 2 weeks after treatment, 100% = complete death, 0% = no phytotoxicity
Description: as §1, §2, §3

corn (Zea) = assay: as above; settings: 2 weeks after treatment, 100% = complete death, 0% = no phytotoxicity
Description: as §1, §2, §3

livid amaranth = assay: Selective herbicide effect test to field crop (foliage spray treatment after germination), Test example 4, herbicide effect; settings: 14 days after spraying, 100% = complete death, 0% = no effect
Description: as §1, §2, §3
(§5) In a greenhouse, respective seeds of weeds (barnyardgrass, southern crabgrass, fat hen, and livid amaranth) and crops (wheat, corn, and soy bean) were sown on the surface layer of pots filled with field soil, and covered with soil. After one day and 10 days (average 2nd leaf stage for weeds) from the sowing and covering the seeds with soil, the prescribed diluted solutions of preparations of respective active compounds, which were prepared according to Test example 1, were uniformly sprayed onto the soil surfaces of respective test pots and the foliage parts of the plant bodies.
(§6) After 14 days from the spraying, the degree of herbicide effect was examined. Evaluation of herbicide effect and phytotoxicity were carried out similarly to Test example 3.

fat hen = assay: as above; settings: 14 days after spraying, 100% = complete death, 0% = no effect
Description: as §1, §2, §3, §5, §6

barnyardgrass = assay: as above; settings: 14 days after spraying, 100% = complete death, 0% = no effect
Description: as §1, §2, §3, §5, §6

southern crabgrass = assay: as above; settings: 14 days after spraying, 100% = complete death, 0% = no effect
Description: as §1, §2, §3, §5, §6

Green bristle grass = assay: Herbicide effect test against field weed (foliage spray treatment after germination), Test example 2; settings: foliage spray treatment after germination (2nd-3rd leaf stage); dosage 500 g ai/ha; 2 weeks after treatment; 100% = complete death
Description: as §1, §2, §4
In a greenhouse, to 16 cm^2 pots filled with field soil (sandy loam), seedling plants (2nd-3rd leaf stage) of a field weed (Green bristle grass) were transplanted. After 1 day, the prescribed diluted solutions of preparations of respective active compounds, which were prepared according to the above Test example 1, were sprayed from the upside of the plant body. After 2 weeks from the treatment, the herbicide effect of each of the compounds was examined. Evaluation of herbicidal effect was carried out similarly to Test example 1.

soy bean = assay: Selective herbicide effect test to field crop (foliage spray treatment after germination), Test example 4, phytotoxicity; settings: 14 days after spraying, 100% = complete death, 0% = no phytotoxicity
Description: as §1, §2, §3, §5, §6

wheat = assay: as above; settings: 14 days after spraying, 100% = complete death, 0% = no phytotoxicity
Description: as §1, §2, §3, §5, §6

corn = assay: as above; settings: 14 days after spraying, 100% = complete death, 0% = no phytotoxicity
Description: as §1, §2, §3, §5, §6

SMILES | herbicide effect, Fat hen (fat hen (Chenopodium); dosage 320 g/ha) | herbicide effect, Barnyardgrass ([1]; dosage 320 g/ha) | Herbicide effect, Livid amaranth ([2]; dosage 320 g/ha) | herbicide effect, Southern crabgrass ([3]; dosage 320 g/ha) | Herbicide effect, Livid amaranth (livid amaranth; 320 g/ha) | herbicide effect, Fat hen (fat hen; 320 g/ha) | herbicide effect, Barnyardgrass (barnyardgrass; 320 g/ha) | herbicide effect, Southern crabgrass (southern crabgrass; 320 g/ha) | Herbicide effect, Green bristle grass (Green bristle grass) | phytotoxicity, Soy bean (soy bean; 320 g/ha) | phytotoxicity, Wheat (wheat; 320 g/ha) | phytotoxicity, Corn (corn; 320 g/ha) | further results
Cc1nc(-n2cncn2)ccc1C(=O)C1C(=O)CCCC1=O [1-1, 2-{[2-methyl-6-(1H-1,2,4-triazol-1-yl)pyridin-3-yl]carbonyl}cyclohexan-1,3-dione] | 100% | 100% | 80% | 100% | – | – | – | – | – | – | – | – | Herbicide effect, Livid amaranth [4]: 100%; Herbicide effect, Green bristle grass [5]: 100%
O=C1CCCC(O)=C1C(=O)c1ccc(-n2cncn2)nc1COCC(F)(F)F [1-28] | 100% | 100% | 90% | 100% | – | – | – | – | – | – | – | – | phytotoxicity, Wheat (wheat (Triticum); dosage 320 g/ha): 0%; phytotoxicity, Soy bean (soy bean (Glycine); dosage 320 g/ha): 10%; phytotoxicity, Corn (corn (Zea); dosage 320 g/ha): 5%
CSCc1nc(-n2cncn2)ccc1C(=O)C1=C(O)CCCC1=O [1-36] | – | – | – | – | 80% | 90% | 100% | 100% | 100% | 50% | 0% | 10% | –
CS(=O)(=O)Cc1nc(-n2cncn2)ccc1C(=O)C1=C(O)CCCC1=O [1-56] | – | – | – | – | 80% | 90% | 100% | 100% | – | 50% | 0% | 50% | –
COCCOCc1nc(-n2cncn2)ccc1C(=O)C1=C(O)CCCC1=O [1-66] | – | – | – | – | 100% | 100% | 100% | 100% | 90% | 50% | 10% | 50% | –
Cc1nc(-n2cncn2)ccc1C(=O)C1=C(O)CCC(C)C1=O (stereo not shown) [1-115] | 100% | 100% | 90% | 100% | – | – | – | – | 100% | – | – | – | phytotoxicity, Wheat (wheat (Triticum); dosage 320 g/ha): 0%; phytotoxicity, Soy bean (soy bean (Glycine); dosage 320 g/ha): 10%; phytotoxicity, Corn (corn (Zea); dosage 320 g/ha): 0%
Cc1nc(-n2cncn2)ccc1C(=O)C1=C(O)CCC(C)(C)C1=O [1-457] | – | – | – | – | 100% | 100% | 100% | 100% | 100% | 40% | 20% | 50% | –
Cc1nc(-n2cncn2)ccc1C(=O)C1=C(O)C(C)(C)C(=O)C(C)(C)C1=O [1-685] | – | – | – | – | – | – | – | – | – | – | – | – | phytotoxicity, Wheat (wheat (Triticum); dosage 80 g/ha): 40%; phytotoxicity, Soy bean (soy bean (Glycine); dosage 80 g/ha): 10%; phytotoxicity, Corn (corn (Zea); dosage 80 g/ha): 30%; herbicide effect, Fat hen (fat hen (Chenopodium); dosage 80 g/ha): 90%; herbicide effect, Barnyardgrass ([1]; dosage 80 g/ha): 100%; Herbicide effect, Livid amaranth ([2]; dosage 80 g/ha): 90%; herbicide effect, Southern crabgrass ([3]; dosage 80 g/ha): 100%
Cc1nc(-n2cncn2)ccc1C(=O)c1cnn(C)c1O [2-1] | – | – | – | – | – | – | – | – | – | – | – | – | Herbicide effect, Livid amaranth (livid amaranth; 80 g/ha): 100%; herbicide effect, Fat hen (fat hen; 80 g/ha): 90%; herbicide effect, Barnyardgrass (barnyardgrass; 80 g/ha): 100%; herbicide effect, Southern crabgrass (southern crabgrass; 80 g/ha): 95%; phytotoxicity, Soy bean (soy bean; 80 g/ha): 50%; phytotoxicity, Wheat (wheat; 80 g/ha): 0%; phytotoxicity, Corn (corn; 80 g/ha): 5%; Herbicide effect, Livid amaranth [4]: 100%; Herbicide effect, Green bristle grass [5]: 100%
Cc1nc(-n2cncn2)ccc1C(=O)c1c(C)nn(C)c1O [2-229] | – | – | – | – | 100% | 90% | 100% | 100% | – | 60% | 10% | 50% | Herbicide effect, Livid amaranth [4]: 100%; Herbicide effect, Green bristle grass [5]: 100%
Cc1nc(-n2cncn2)ccc1C(=O)c1cnoc1C1CC1 [3-115] | 100% | 100% | 90% | 100% | – | – | – | – | 100% | – | – | – | phytotoxicity, Wheat (wheat (Triticum); dosage 320 g/ha): 5%; phytotoxicity, Soy bean (soy bean (Glycine); dosage 320 g/ha): 20%; phytotoxicity, Corn (corn (Zea); dosage 320 g/ha): 10%

From patent US8658798B2, “Herbicide triazolylpyridine ketones” (Bayer Cropscience AG, priority 2007, dated 2014)
